Assays:
Format in all cases: in vivo
[1] = test system: KYSE520 tumor cell xenograft; assay: Growth inhibition of xenograft in nude mice; conditions: orally, once daily, for 21 consecutive days
Description: (§1) Experimental method: 1) Culturing MV 4-11/KYSE520/NCI-H358 cells in a culture medium containing 10% fetal bovine serum. Harvesting tumor cells at an exponential growth phase, and resuspending in PBS to suitable concentrations for subcutaneous tumor inoculation in nude mice. 2) Subcutaneously inoculating 2-8×10^7 tumor cells at the right back of a mouse, and resuspending the cells in PBS and matrigel (1:1); observing tumor growth regularly, and randomizing mice for administration based on tumor size and mouse body weight when tumors grow to a mean volume of ˜120 mm^3-[…]. 3) Defining the day of tumor cell inoculation as Day 0. Prior to the start of dosing, weighing all animals and measuring the tumor volume with a vernier caliper. 3) Administering orally compound of examples (prepared with water for injection containing 1% Tween80 to a desired concentration for use) at a given dose for three consecutive weeks, and giving an equal amount of solvent animals in a solvent control group. Measuring diameters of the xenograft twice a week throughout the experiment, and weighing the mice were at the same time.
(§2) The calculation formula of tumor volume (TV) is: TV=½×a×b^2, wherein a and b represent length and width, respectively. The relative tumor volume (RTV) is calculated based on the measured results using the formula: RTV=Vt/V0, wherein V0 is the tumor volume measured at the time of dosing in separate cages (i.e., Day 0) and Vt is the tumor volume at each measurement. The anti-tumor activity is evaluated by the following measures: 1) relative tumor proliferation rate T/C (%), which is calculated by the following formula: T/C (%)=(TRTV/CRTV)×100%, wherein TRTV: RTV of ae treatment group; CRTV: RTV of a negative control group; 2) inhibition rate of tumor volume growth GI %, which is calculated by the following formula: GI %=[1−(TVt−TV0)/(CVt−[…])]×100%, wherein TVt is the tumor volume at each measurement in the treatment group; TV0 is the tumor volume obtained at the time of dosing in separate cages in the treatment group; CVt is the tumor volume at each measurement in the control group; CV0 is the tumor volume obtained at the time of dosing in separate cages in the control group (specific data are shown in Table 4).

[2] = test system: MV 4-11 tumor cell xenograft; assay: Growth inhibition of xenograft in nude mice; conditions: orally, once daily, for 21 consecutive days
Description: as §1, §2

[3] = test system: NCI-H358 tumor cell xenograft; assay: Growth inhibition of xenograft in nude mice; conditions: orally, once daily, for 21 consecutive days
Description: as §1, §2

[4] = test system: MV 4-11/KYSE520/NCI-H358 tumor cell xenografts; assay: Xenograft study in nude mice: tolerance and westernblot assay of tumor tissues
Description: as §1

Work on `Cc1nc(N2CCC3(CC2)Cc2ccccc2[C@H]3N)n2ccnc2c1Sc1ccnc(N)c1Cl` [Example 1, (S)-1′-(8-((2-amino-3-chloropyridin-4-yl)thio)-7-methylimidazo [1,2-c]pyrimidin-5-yl)-1,3-dihydrospiro [indene-2,4′-piperidine]-1-amine] yielded a T/C ([1]; 2 mg/kg) of 30%, a T/C ([1]; 6 mg/kg) of 18% and a T/C ([2]; 2 mg/kg) of 28%. For the same compound, the T/C ([2]; 5 mg/kg) was 3.0%, the T/C ([3]; 0.8 mg/kg) was 39% and the T/C ([3]; 2.5 mg/kg) was 13%. For the same compound, the “inhibition of the signaling pathway in tumor tissues (westernblot)” value ([4]; 24 hours after the last dosing) was “can still inhibit the signaling pathway in tumor tissues continuously 24 hours after the last dosing” and the “tolerance of the experimental animals” value ([4]; nude mice with xenografts, oral dosing for three weeks) was “well tolerated”.

Source: patent US12281118B2, “Nitrogen-containing fused heterocyclic SHP2 inhibitor compound, preparation method, and use” (SHANGHAI RINGENE BIOPHARMA CO., LTD., priority 2018, dated 2025)
